Like-named read-outs stand apart in the source and are kept apart here.
System: S. aureus Smith (ATCC 13709)
Experiment: Mouse systemic infection (septicemia) model, S. aureus Smith
Type: in vivo
Conditions: Staphylococcus aureus; for responders at 3 mg/kg: ATCC13709, iv, read-out: SA Smith septicemia survival IV (3 mg/kg); for responders at 3 mg/kg / responders at 30 mg/kg: 48 h; for responders at 30 mg/kg: ATCC13709, po, read-out: SA Smith septicemia survival PO (30 mg/kg); for ED50: ATCC13709, dose that prevents 50% of the mice from death, 48 hours
Experimental: Mouse Systemic Infection Protocol-S. aureus Smith Septicemia
Compounds were screened for antibacterial activity in vivo in a mouse systemic infection (septicemia) model. In the model, CD-1 female mice (18-22 grams) were injected IP with a S. aureus Smith (ATCC 13709) inoculum that results in 0% survival within 24 to 48 hours. The bacterial dose required to achieve this effect was previously established through virulence studies. At one hour post infection, mice received either […] IV or […] PO. Typically, six mice were treated per dose group. Animal survival was assessed and recorded for 48 hours. Percent survival at 48 hours was recorded and PD50 (mg/kg) was determined for each compound tested.

[1] = CD-1 female mice, IV 3 mg/kg one hour post infection, survival at 48 hours
[2] = CD-1 female mice, PO 30 mg/kg one hour post infection, survival at 48 hours
[3] = CD-1 female mice, PO, read-out: SA Smith septicemia PD50 PO

| SMILES | responders at 3 mg/kg [1] [%] | responders at 30 mg/kg [2] [%] | further results |
| --- | --- | --- | --- |
| CN(C)[C@@H]1C(O)=C(C(N)=O)C(=O)[C@@]2(O)C(O)=C3C(=O)c4c(O)cc(CNC56CC7CC(CC(C7)C5)C6)c(F)c4C[C@H]3C[C@@H]12 [Compound S1-14-4] | 100 | 0 |  |
| CN(C)[C@@H]1C(O)=C(C(N)=O)C(=O)[C@@]2(O)C(O)=C3C(=O)c4c(O)cc(CNCC56CC7CC(CC(C7)C5)C6)c(F)c4C[C@H]3C[C@@H]12 [Compound S1-14-25] | 33 | 17 |  |
| CN(C)[C@@H]1C(O)=C(C(N)=O)C(=O)[C@@]2(O)C(O)=C3C(=O)c4c(O)cc(CNC5C6CC7CC(C6)CC5C7)c(F)c4C[C@H]3C[C@@H]12 (some centres unmarked) [Compound S1-14-28] | 33 | 17 |  |
| CN(C)[C@@H]1C(O)=C(C(N)=O)C(=O)[C@@]2(O)C(O)=C3C(=O)c4c(O)cc(CN(CCF)CC5CC5)c(F)c4C[C@H]3C[C@@H]12 [Compound S1-14-31] |  |  | responders at 3 mg/kg: 0%; responders at 30 mg/kg: 0% |
| CCN(Cc1cc(O)c2c(c1F)C[C@H]1C[C@H]3[C@H](N(C)C)C(O)=C(C(N)=O)C(=O)[C@@]3(O)C(O)=C1C2=O)C1(C)CC1 [Compound S1-14-36] | 33 | 0 |  |
| CN(Cc1ccccc1)Cc1cc(O)c2c(c1F)C[C@H]1C[C@H]3[C@H](N(C)C)C(O)=C(C(N)=O)C(=O)[C@@]3(O)C(O)=C1C2=O [Compound S1-14-46] | 0 | 0 |  |
| CCN(Cc1cc(O)c2c(c1F)C[C@H]1C[C@H]3[C@H](N(C)C)C(O)=C(C(N)=O)C(=O)[C@@]3(O)C(O)=C1C2=O)C1(C)CCCC1 [Compound S1-14-73] | 50 | 75 |  |
| CN(C)[C@@H]1C(O)=C(C(N)=O)C(=O)[C@@]2(O)C(O)=C3C(=O)c4c(O)cc(CNC5Cc6ccccc6C5)c(F)c4C[C@H]3C[C@@H]12 [Compound S1-14-90] | 33 | 0 |  |
| CCC1(CNCc2cc(O)c3c(c2F)C[C@H]2C[C@H]4[C@H](N(C)C)C(O)=C(C(N)=O)C(=O)[C@@]4(O)C(O)=C2C3=O)CCC1 [Compound S1-14-91] | 17 | 60 |  |
| CN(C)[C@@H]1C(O)=C(C(N)=O)C(=O)[C@@]2(O)C(O)=C3C(=O)c4c(O)cc(CNCc5ccccc5)c(F)c4C[C@H]3C[C@@H]12 [Compound S1-14-105] | 67 | 0 |  |
| CN(C)[C@@H]1C(O)=C(C(N)=O)C(=O)[C@@]2(O)C(O)=C3C(=O)c4c(O)cc(CN5CCC6(CC5)CC6)c(F)c4C[C@H]3C[C@@H]12 [Compound S1-14-128] | 100 | 100 |  |
| CN(C)[C@@H]1C(O)=C(C(N)=O)C(=O)[C@@]2(O)C(O)=C3C(=O)c4c(O)cc(CN5CCC(C6CC6)CC5)c(F)c4C[C@H]3C[C@@H]12 [Compound S1-14-134] | 50 | 17 |  |
| CN(C)[C@@H]1C(O)=C(C(N)=O)C(=O)[C@@]2(O)C(O)=C3C(=O)c4c(O)cc(CNC(C)(C)CC(C)(C)C)c(F)c4C[C@H]3C[C@@H]12 [Compound S2-4-7] | 67 | 17 |  |
| CN(C)[C@@H]1C(O)=C(C(N)=O)C(=O)[C@@]2(O)C(O)=C3C(=O)c4c(O)cc(CN5CCCCC56CC6)c(F)c4C[C@H]3C[C@@H]12 [Compound S2-4-11] | 0 | 0 |  |
| CN(Cc1cc(O)c2c(c1F)C[C@H]1C[C@H]3[C@H](N(C)C)C(O)=C(C(N)=O)C(=O)[C@@]3(O)C(O)=C1C2=O)CC(C)(C)C [Compound S2-4-21] | 16 | 0 |  |
| CN(C)[C@@H]1C(O)=C(C(N)=O)C(=O)[C@@]2(O)C(O)=C3C(=O)c4c(O)cc(CN(C)C(C)(C)CC(C)(C)C)c(F)c4C[C@H]3C[C@@H]12 [Compound S2-4-30] | 33 |  | ED50 [3]: > 60 mg/kg |
| CCN(Cc1cc(O)c2c(c1F)C[C@H]1C[C@H]3[C@H](N(C)C)C(O)=C(C(N)=O)C(=O)[C@@]3(O)C(O)=C1C2=O)C(C)(C)CC [Compound S2-4-33] | 67 | 33 |  |
| CN(C)[C@@H]1C(O)=C(C(N)=O)C(=O)[C@@]2(O)C(O)=C3C(=O)c4c(O)cc(CN(CC5CC5)C5CC5)c(F)c4C[C@H]3C[C@@H]12 [Compound S2-4-41] | 0 | 0 |  |

| SMILES | responders at 3 mg/kg [1] [%] | responders at 30 mg/kg [2] [%] | further results |
| --- | --- | --- | --- |
| CCN(Cc1cc(O)c2c(c1F)C[C@H]1C[C@H]3[C@H](N(C)C)C(O)=C(C(N)=O)C(=O)[C@@]3(O)C(O)=C1C2=O)CC(C)C [Compound S2-4-50] |  |  | ED50 (CD-1 female mice, IV, read-out: SA Smith septicemia PD50 IV): 1 mg/kg; ED50 [3]: 10.1 mg/kg |
| CC(C)[C@@H](C)N(C)Cc1cc(O)c2c(c1F)C[C@H]1C[C@H]3[C@H](N(C)C)C(O)=C(C(N)=O)C(=O)[C@@]3(O)C(O)=C1C2=O [Compound S2-4-57] | 50 | 33 |  |
| CN(C)[C@@H]1C(O)=C(C(N)=O)C(=O)[C@@]2(O)C(O)=C3C(=O)c4c(O)cc(CN(C)C5(C6CC6)CC5)c(F)c4C[C@H]3C[C@@H]12 [Compound S2-4-60] | 17 | 33 |  |
| CCN(Cc1cc(O)c2c(c1F)C[C@H]1C[C@H]3[C@H](N(C)C)C(O)=C(C(N)=O)C(=O)[C@@]3(O)C(O)=C1C2=O)CC1CCCC1 [Compound S2-4-62] | 17 | 25 |  |
| C[C@@H]1CCC[C@H](C)N1Cc1cc(O)c2c(c1F)C[C@H]1C[C@H]3[C@H](N(C)C)C(O)=C(C(N)=O)C(=O)[C@@]3(O)C(O)=C1C2=O [Compound S2-4-66] | 100 | 100 | ED50 [3]: 8.5 mg/kg |
| CN(C)[C@@H]1C(O)=C(C(N)=O)C(=O)[C@@]2(O)C(O)=C3C(=O)c4c(O)cc(CN5CCCCC5(C)C)c(F)c4C[C@H]3C[C@@H]12 [Compound S6-4-1] | 100 | 100 |  |
| CN(C)[C@@H]1C(O)=C(C(N)=O)C(=O)[C@@]2(O)C(O)=C3C(=O)c4c(O)cc(CNCC(C)(C)C)c(Cl)c4C[C@H]3C[C@@H]12 [Compound S15-13-5] | 50 | 17 |  |
| CC(C)[C@@H](C)NCc1cc(O)c2c(c1Cl)C[C@H]1C[C@H]3[C@H](N(C)C)C(O)=C(C(N)=O)C(=O)[C@@]3(O)C(O)=C1C2=O [Compound S15-13-8] | 67 | 50 |  |
| CN(C)[C@@H]1C(O)=C(C(N)=O)C(=O)[C@@]2(O)C(O)=C3C(=O)c4c(O)cc(CN5CCC(C)(C)CC5)c(Cl)c4C[C@H]3C[C@@H]12 [Compound S15-13-16] | 33 | 17 |  |
| CN(C)[C@@H]1C(O)=C(C(N)=O)C(=O)[C@@]2(O)C(O)=C3C(=O)c4c(O)cc(CN5CCOCC5)c(Cl)c4C[C@H]3C[C@@H]12 [Compound S15-13-17] | 100 | 67 |  |
| CN(C)[C@@H]1C(O)=C(C(N)=O)C(=O)[C@@]2(O)C(O)=C3C(=O)c4c(O)cc(CN[C@@H]5CC6CCC5C6)c(Cl)c4C[C@H]3C[C@@H]12 (some centres unmarked) [Compound S15-13-23] | 83 | 50 |  |
| CN(C)[C@@H]1C(O)=C(C(N)=O)C(=O)[C@@]2(O)C(O)=C3C(=O)c4c(O)cc(CN5CC6CCCCC6C5)c(Cl)c4C[C@H]3C[C@@H]12 (some centres unmarked) [Compound S15-13-117] | 33 | 20 |  |
| CC1CCN(Cc2cc(O)c3c(c2Cl)C[C@H]2C[C@H]4[C@H](N(C)C)C(O)=C(C(N)=O)C(=O)[C@@]4(O)C(O)=C2C3=O)CC1 [Compound S15-13-182] | 33 | 67 |  |
| CN(C)[C@@H]1C(O)=C(C(N)=O)C(=O)[C@@]2(O)C(O)=C3C(=O)c4c(O)cc(CN5CC6CCCC6C5)c(Cl)c4C[C@H]3C[C@@H]12 (some centres unmarked) [Compound S15-13-184] | 17 | 0 |  |
| C[C@@H]1CC[C@H](C)N1Cc1cc(O)c2c(c1Cl)C[C@H]1C[C@H]3[C@H](N(C)C)C(O)=C(C(N)=O)C(=O)[C@@]3(O)C(O)=C1C2=O [Compound S15-13-203] | 100 | 100 |  |
| CC(C)N(Cc1cc(O)c2c(c1Cl)C[C@H]1C[C@H]3[C@H](N(C)C)C(O)=C(C(N)=O)C(=O)[C@@]3(O)C(O)=C1C2=O)CC1CC1 [Compound S15-13-215] | 50 | 50 |  |
| C[C@@H]1CCC[C@H](C)N1Cc1cc(O)c2c(c1Cl)C[C@H]1C[C@H]3[C@H](N(C)C)C(O)=C(C(N)=O)C(=O)[C@@]3(O)C(O)=C1C2=O [Compound S15-13-221] | 33 | 50 |  |

Reference: patent US9315451B2, “Tetracycline compounds” (priority 2009, dated 2016)
